# Assays:
# Experiment in all cases: relative viability (nuclei count vs DMSO), 5 days (fraction); higher = more cells survive
# Indole-3-carbinol = compound: OCc1c[nH]c2ccccc12 [Indole-3-carbinol]
# Procedure, shortened: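 Five library-drug doses spaced by √10 were pinned onto vehicle-anchored 1536-well plates of lung cancer cell lines that had been kept overnight at 37 °C. Cells went 5 days without medium change, then were fixed, permeabilised and Hoechst-stained together, imaged at 4× and counted by MetaXpress. Viability is the ratio of treated-well to vehicle-well nuclei, taken as a median over plates. Plates required control CV below 25% and at least one doubling.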
# [1] = compound: OCc1c[nH]c2ccccc12 [Indole-3-carbinol] + CC1(C)CCC(c2ccc(Cl)cc2)=C(CN2CCN(c3ccc(C(=O)NS(=O)(=O)c4ccc(N[C@H](CCN5CCOCC5)CSc5ccccc5)c(S(=O)(=O)C(F)(F)F)c4)cc3)CC2)C1 [Navitoclax] (partner 0.5 µM)
# Procedure, shortened: (§1)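 Relative viability divides the nuclei count in treated wells by that in vehicle wells. Lung cancer cell lines were seeded in 1536-well plates, dosed by pin tool the next day, and fixed and stained after 5 days in one step with final 0.05% Triton X-100, 1% formaldehyde and 1 ug/ml Hoechst. Dosing was a single drug or a fixed anchor-drug dose plus five library-drug doses (not always all listed) in √10 steps, and values are medians of duplicate plates imaged at 4×.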
# [2] = compound: OCc1c[nH]c2ccccc12 [Indole-3-carbinol] + COc1cccc2cc(-c3nc([C@H]4CC[C@H](C(=O)O)CC4)n4ncnc(N)c34)[nH]c12 [OSI-027] (partner 0.5 µM)
# Procedure, shortened: as §1
# [3] = compound: OCc1c[nH]c2ccccc12 [Indole-3-carbinol] + CS(=O)(=O)N1CCN(Cc2cc3nc(-c4cccc5[nH]ncc45)nc(N4CCOCC4)c3s2)CC1 [Pictilisib] (partner 1 µM)
# Procedure, shortened: as §1
# [4] = compound: OCc1c[nH]c2ccccc12 [Indole-3-carbinol] + Nc1ncn([C@H]2C[C@H](O)[C@@H](CO)O2)c(=O)n1 [Decitabine] (partner 2 µM)
# Procedure, shortened: as §1
Cell Line,relative viability (Indole-3-carbinol; 0.253 µM),relative viability (Indole-3-carbinol; 0.8 µM),relative viability (Indole-3-carbinol; 2.53 µM),relative viability (Indole-3-carbinol; 8 µM),relative viability ([1]; first compound 0.253 µM),relative viability ([1]; first compound 0.8 µM),relative viability ([1]; first compound 2.53 µM),relative viability ([1]; first compound 8 µM),relative viability ([2]; first compound 0.253 µM),relative viability ([2]; first compound 0.8 µM),relative viability ([2]; first compound 2.53 µM),relative viability ([2]; first compound 8 µM),relative viability ([3]; first compound 0.253 µM),relative viability ([3]; first compound 0.8 µM),relative viability ([3]; first compound 2.53 µM),relative viability ([3]; first compound 8 µM),relative viability ([4]; first compound 0.253 µM),relative viability ([4]; first compound 0.8 µM),relative viability ([4]; first compound 2.53 µM),relative viability ([4]; first compound 8 µM)
NCI-H3122,1.07,0.986,1.02,0.983,1.04,1.01,1.02,1.01,0.967,1.08,1.02,0.948,0.553,0.673,0.592,0.588,0.462,0.414,0.37,0.451
PC-3 [JPC-3],1.05,1.04,1.05,0.953,0.8,0.804,0.823,0.783,0.714,0.741,0.704,0.745,0.817,0.801,0.649,0.73,0.868,0.832,0.91,0.809
PC-14,1.04,0.948,1,0.953,1.01,1.1,1.07,0.961,0.756,0.828,0.873,0.706,0.738,0.875,0.735,0.652,0.201,0.196,0.276,0.23
RERF-LC-KJ,1.01,0.999,0.947,0.92,1.12,0.907,0.971,1.04,0.556,0.545,0.585,0.601,0.512,0.541,0.562,0.581,0.741,0.69,0.716,0.62
SK-LU-1,1.11,0.969,1.03,0.996,0.899,0.783,0.795,0.653,0.359,0.322,0.382,0.314,0.568,0.405,0.522,0.551,0.689,0.626,0.757,0.719
SK-MES-1,1.02,1.08,0.991,0.953,1.28,1.3,1.18,1.18,0.596,0.642,0.588,0.537,0.416,0.356,0.321,0.4,0.341,0.415,0.413,0.348
SW 1573,0.954,1.08,1.12,0.949,1.1,1.13,1.03,0.901,0.639,0.593,0.804,0.521,0.361,0.577,0.544,0.425,0.48,0.535,0.636,0.417
UMC-11,0.977,1.03,0.966,0.983,0.259,0.308,0.329,0.325,0.443,0.495,0.464,0.472,0.792,0.836,0.764,0.789,0.608,0.638,0.709,0.593
